Measured values published in patent US20250250299A1, “MACROCYCLIC IMMUNOMODULATORS” (Bristol-Myers Squibb Company, priority 2022, published 2025).
Where a SMILES comes first, the peptide text is derived from it. Bridges are numbered along the chain shown (N, C = ends). [ ]: non-standard residue; d: D form. The star is where a group is joined. X1 = O=C(O)CCCCCCCCCCCCCCCCC(=O)N[C@@H](CCC(=O)NCCOCCOCCOCCOCCOCCOCCOCCOCCOCCOCCOCCn1cc(C*)nn1)C(=O)O; Phe(4-CH2NH2) = NCc1ccc(C[C@H](N)C(=O)O)cc1; Bip = N[C@@H](Cc1ccc(-c2ccccc2)cc1)C(=O)O; Phe(3-Me) = Cc1cccc(C[C@H](N)C(=O)O)c1; C12 diacid = O=C(O)CCCCCCCCCCC(=O)*; 4Pal = N[C@@H](Cc1ccncc1)C(=O)O; Cha = N[C@@H](CC1CCCCC1)C(=O)O; Carboxymethyl = O=C(O)C*; NMeA = CN[C@@H](C)C(=O)O; Orn = NCCC[C@H](N)C(=O)O; Dab = NCC[C@H](N)C(=O)O; Dap = NC[C@H](N)C(=O)O; AEEA = NCCOCCOCC(=O)O

Biological target: T1, human PD-1 (Jurkat-PD-1 cells; binding of PE-labeled human PD-L1-Ig) (Homo sapiens, UniProt Q15116)
T1 construct: expressed in transfected cells; host or cells: Jurkat (Jurkat-PD-1 / Jurkat-hPD-1)
Assay: Jurkat-PD-1 Cell Binding High-Content Screening Assay
Conditions: Jurkat cell line over-expressing human PD-1; compound 2 h at 37° C., then PE-labeled PD-L1-Ig 20 nM final, 1 hour; read-out: Jurkat hPD1 PDL1 IC50

T1 sequence (Q15116 25-288): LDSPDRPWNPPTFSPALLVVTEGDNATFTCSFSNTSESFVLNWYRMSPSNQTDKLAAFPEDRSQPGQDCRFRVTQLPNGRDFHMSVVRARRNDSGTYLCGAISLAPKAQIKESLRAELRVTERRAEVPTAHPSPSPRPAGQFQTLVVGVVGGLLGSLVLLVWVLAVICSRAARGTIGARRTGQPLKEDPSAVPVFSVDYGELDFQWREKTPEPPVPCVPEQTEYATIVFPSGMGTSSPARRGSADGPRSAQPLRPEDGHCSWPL

Structure (SMILES)	IC50
CC(C)C[C@H]1NC(=O)[C@H](C)N(C)C(=O)[C@H](CCCCNC(=O)CCCCCCCCCCC(=O)O)NC(=O)[C@H](Cc2ccc(-c3ccccc3)cc2)NC(=O)[C@H](C(C)C)NC(=O)[C@H](Cc2c[nH]c3ccccc23)NC(=O)[C@H](CC(=O)O)NC(=O)[C@H](Cc2ccncc2)NC(=O)[C@H](Cc2ccc(OCC(=O)O)cc2)NC(=O)CSC[C@@H](C(N)=O)NC(=O)[C@H](CO)NC(=O)[C@H](C(C)C)NC(=O)[C@H](CC2CCCCC2)NC(=O)[C@H](CC(N)=O)NC1=O [Compound 1039] ({CH2CO}-Y(Carboxymethyl)[4Pal]DWV[Bip]K(C12 diacid)[NMeA][dL]N[Cha]VSC-NH2; thioether N-14)	870 nM
Cc1cccc(C[C@@H]2NC(=O)[C@H](CC(=O)O)NC(=O)[C@H](Cc3ccc(OCC(=O)O)cc3)NC(=O)[C@H](CN)NC(=O)CSC[C@@H](C(=O)N[C@@H](CCN)C(=O)NCCOCCOCC(N)=O)NC(=O)[C@H]([C@@H](C)O)NC(=O)[C@H](C(C)C)NC(=O)[C@H](CC3CCCCC3)NC(=O)[C@H](CCN)NC(=O)[C@@H](CC(C)C)NC(=O)[C@H](CCCN)NC(=O)[C@H](Cc3ccc(OCC(=O)O)cc3)NC(=O)[C@H](Cc3ccc(-c4ccccc4)cc3)NC(=O)[C@H](COCc3cn(CCOCCOCCOCCOCCOCCOCCOCCOCCOCCOCCOCCNC(=O)CC[C@H](NC(=O)CCCCCCCCCCCCCCCCC(=O)O)C(=O)O)nn3)NC2=O)c1 [Compound 1040] ({CH2CO}-[Dap]Y(Carboxymethyl)D[Phe(3-Me)]S(X1)[Bip]Y(Carboxymethyl)[Orn][dL][Dab][Cha]VTC[Dab][AEEA]-NH2; thioether N-14)	250 nM
Cc1cccc(C[C@@H]2NC(=O)[C@H](CC(=O)O)NC(=O)[C@H](Cc3ccc(OCC(=O)O)cc3)NC(=O)[C@H](CN)NC(=O)CSC[C@@H](C(=O)N[C@@H](CCN)C(=O)NCCOCCOCC(N)=O)NC(=O)[C@H]([C@@H](C)O)NC(=O)[C@H](C(C)C)NC(=O)[C@H](CC3CCCCC3)NC(=O)[C@H](CCN)NC(=O)[C@@H](CC(C)C)NC(=O)[C@H](CCCN)NC(=O)[C@H](COCc3cn(CCOCCOCCOCCOCCOCCOCCOCCOCCOCCOCCOCCNC(=O)CC[C@H](NC(=O)CCCCCCCCCCCCCCCCC(=O)O)C(=O)O)nn3)NC(=O)[C@H](Cc3ccc(-c4ccccc4)cc3)NC(=O)[C@H](Cc3ccc(OCC(=O)O)cc3)NC2=O)c1 [Compound 1042] ({CH2CO}-[Dap]Y(Carboxymethyl)D[Phe(3-Me)]Y(Carboxymethyl)[Bip]S(X1)[Orn][dL][Dab][Cha]VTC[Dab][AEEA]-NH2; thioether N-14)	220 nM
Cc1cccc(C[C@@H]2NC(=O)[C@H](CC(=O)O)NC(=O)[C@H](Cc3ccc(OCC(=O)O)cc3)NC(=O)[C@H](CN)NC(=O)CSC[C@@H](C(=O)N[C@@H](CCN)C(=O)NCCOCCOCC(N)=O)NC(=O)[C@H]([C@@H](C)O)NC(=O)[C@H](C(C)C)NC(=O)[C@H](CC3CCCCC3)NC(=O)[C@H](CCN)NC(=O)[C@@H](CC(C)C)NC(=O)[C@H](COCc3cn(CCOCCOCCOCCOCCOCCOCCOCCOCCOCCOCCOCCNC(=O)CC[C@H](NC(=O)CCCCCCCCCCCCCCCCC(=O)O)C(=O)O)nn3)NC(=O)[C@H](Cc3ccc(OCC(=O)O)cc3)NC(=O)[C@H](Cc3ccc(-c4ccccc4)cc3)NC(=O)[C@H](Cc3ccc(OCC(=O)O)cc3)NC2=O)c1 [Compound 1043] ({CH2CO}-[Dap]Y(Carboxymethyl)D[Phe(3-Me)]Y(Carboxymethyl)[Bip]Y(Carboxymethyl)S(X1)[dL][Dab][Cha]VTC[Dab][AEEA]-NH2; thioether N-14)	610 nM
CC(C)C[C@H]1NC(=O)[C@H](C)N(C)C(=O)[C@H](C(C)C)NC(=O)[C@H](Cc2ccc(-c3ccccc3)cc2)NC(=O)[C@H](C(C)C)NC(=O)[C@H](Cc2c[nH]c3ccccc23)NC(=O)[C@H](CC(=O)O)NC(=O)[C@H](Cc2ccncc2)NC(=O)[C@H](Cc2ccc(OCC(=O)O)cc2)NC(=O)CSC[C@@H](C(N)=O)NC(=O)[C@H](CO)NC(=O)[C@H](C(C)C)NC(=O)[C@H](CC2CCCCC2)NC(=O)[C@H](CCCCNC(=O)CCCCCCCCCCC(=O)O)NC1=O [Compound 1044] ({CH2CO}-Y(Carboxymethyl)[4Pal]DWV[Bip]V[NMeA][dL]K(C12 diacid)[Cha]VSC-NH2; thioether N-14)	360 nM
CC(C)C[C@H]1NC(=O)[C@H](C)N(C)C(=O)[C@H](C(C)C)NC(=O)[C@H](Cc2ccc(-c3ccccc3)cc2)NC(=O)[C@H](C(C)C)NC(=O)[C@H](Cc2c[nH]c3ccccc23)NC(=O)[C@H](CC(=O)O)NC(=O)[C@H](Cc2ccncc2)NC(=O)[C@H](Cc2ccc(OCC(=O)O)cc2)NC(=O)CSC[C@@H](C(N)=O)NC(=O)[C@H](CCCCNC(=O)CCCCCCCCCCC(=O)O)NC(=O)[C@H](C(C)C)NC(=O)[C@H](CC2CCCCC2)NC(=O)[C@H](CC(N)=O)NC1=O [Compound 1045] ({CH2CO}-Y(Carboxymethyl)[4Pal]DWV[Bip]V[NMeA][dL]N[Cha]VK(C12 diacid)C-NH2; thioether N-14)	180 nM

Further compounds by falling IC50, results first:

IC50	Structure (SMILES)
180 nM	CC(C)C[C@H]1NC(=O)[C@H](C)N(C)C(=O)[C@H](C(C)C)NC(=O)[C@H](Cc2ccc(-c3ccccc3)cc2)NC(=O)[C@H](C(C)C)NC(=O)[C@H](Cc2c[nH]c3ccccc23)NC(=O)[C@H](CC(=O)O)NC(=O)[C@H](Cc2ccc(CNC(=O)CCCCCCCCCCC(=O)O)cc2)NC(=O)[C@H](Cc2ccc(OCC(=O)O)cc2)NC(=O)CSC[C@@H](C(N)=O)NC(=O)[C@H](CO)NC(=O)[C@H](C(C)C)NC(=O)[C@H](CC2CCCCC2)NC(=O)[C@H](CC(N)=O)NC1=O [Compound 1038] ({CH2CO}-Y(Carboxymethyl)[Phe(4-CH2NH2)](C12 diacid)DWV[Bip]V[NMeA][dL]N[Cha]VSC-NH2; thioether N-14)
140 nM	Cc1cccc(C[C@@H]2NC(=O)[C@H](CC(=O)O)NC(=O)[C@H](Cc3ccc(OCC(=O)O)cc3)NC(=O)[C@H](CN)NC(=O)CSC[C@@H](C(=O)N[C@@H](CCN)C(=O)NCCOCCOCC(N)=O)NC(=O)[C@H](COCc3cn(CCOCCOCCOCCOCCOCCOCCOCCOCCOCCOCCOCCNC(=O)CC[C@H](NC(=O)CCCCCCCCCCCCCCCCC(=O)O)C(=O)O)nn3)NC(=O)[C@H](C(C)C)NC(=O)[C@H](CC3CCCCC3)NC(=O)[C@H](CCN)NC(=O)[C@@H](CC(C)C)NC(=O)[C@H](CCCN)NC(=O)[C@H](Cc3ccc(OCC(=O)O)cc3)NC(=O)[C@H](Cc3ccc(-c4ccccc4)cc3)NC(=O)[C@H](Cc3ccc(OCC(=O)O)cc3)NC2=O)c1 [Compound 1041] ({CH2CO}-[Dap]Y(Carboxymethyl)D[Phe(3-Me)]Y(Carboxymethyl)[Bip]Y(Carboxymethyl)[Orn][dL][Dab][Cha]VS(X1)C[Dab][AEEA]-NH2; thioether N-14)
